Assay results reported in PMC7281280, “Is the Way to Fight Cancer Paved with Gold? Metal-Based Carbene Complexes with Multiple and Fascinating Biological Features” (Pharmaceuticals, 2020).

Key:
[1] = target: T1, human topoisomerase I (hTopo I) (Homo sapiens, UniProt P11387); assay: Human topoisomerase I relaxation assay; format: biochemical; settings: 1 μM
T1 construct: purchased TopoGEN, Port Orange, FL, USA
T1 sequence (P11387 1-765): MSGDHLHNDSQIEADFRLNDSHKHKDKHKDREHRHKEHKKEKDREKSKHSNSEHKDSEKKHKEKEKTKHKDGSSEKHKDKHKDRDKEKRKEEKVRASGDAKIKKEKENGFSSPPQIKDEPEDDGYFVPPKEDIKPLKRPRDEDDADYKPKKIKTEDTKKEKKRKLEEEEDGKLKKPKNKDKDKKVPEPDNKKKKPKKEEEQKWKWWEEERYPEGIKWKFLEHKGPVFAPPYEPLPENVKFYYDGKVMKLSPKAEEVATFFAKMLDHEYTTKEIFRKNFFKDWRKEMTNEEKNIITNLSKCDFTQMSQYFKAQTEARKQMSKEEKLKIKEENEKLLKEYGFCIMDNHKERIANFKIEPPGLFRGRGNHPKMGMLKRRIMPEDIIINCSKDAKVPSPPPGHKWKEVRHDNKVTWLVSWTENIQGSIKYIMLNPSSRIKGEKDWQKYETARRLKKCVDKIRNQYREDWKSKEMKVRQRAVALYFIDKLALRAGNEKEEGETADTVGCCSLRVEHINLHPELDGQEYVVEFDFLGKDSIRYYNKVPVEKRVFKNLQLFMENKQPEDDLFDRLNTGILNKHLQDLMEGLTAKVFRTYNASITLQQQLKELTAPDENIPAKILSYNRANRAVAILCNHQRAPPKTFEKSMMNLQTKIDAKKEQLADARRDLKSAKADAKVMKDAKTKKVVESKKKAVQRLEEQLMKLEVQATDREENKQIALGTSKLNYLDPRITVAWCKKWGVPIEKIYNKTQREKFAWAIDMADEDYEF
Procedure: Topoisomerases are essential enzymes involved in DNA metabolism, because of their ability to cause temporary DNA strand breakage, and tightly involved, if overexpressed, in cancer development.
hTopo I relaxation assays have been performed in a final volume of […], as reported by Iacopetta et al., incubating […] of supercoiled plasmid pHOT1 in Tris-EDTA (TE) buffer (TopoGEN, Port Orange, FL, USA) with tested compounds and recombinant hTopo I (2 units) (TopoGEN, Port Orange, FL, USA) for 1h at 37 °C. The obtained solution has been loaded in a 1% agarose gel containing 1× Tris-acetate-EDTA (TAE) buffer without ethidium bromide (EB). Agarose gel has been stained using 1× TAE buffer with EB ([…]) for 30 min and after washed with distilled water for 15 min. At the end, it has been visualized by using a ultraviolet (UV) transilluminator. The experiment was performed in triplicate.
Figure 7 hTopoI assay.

HeLa cells = assay: Immunofluorescence of microtubules, HeLa; format: cell-based, human; settings: at IC50 value, 24 h
Procedure: Cells were grown on glass coverslips in full media, then serum-deprived for 24 h and exposed to compounds for 24 h (concentration equal to its IC50 value). Then, the cells after PBS-washed, were fixed with cold methanol (15 min/−20 °C) and incubated with primary antibody, diluted in blocking solution (4 °C/overnight), as previously described. The mouse anti-β-Actin (69879) and the rabbit anti-β tubulin (9104) were purchased from Santa Cruz Biotechnology and used at 1:100 dilution. Coverslips were then washed 3 times with PBS, then fixed cells were incubated with the secondary antibody Alexa Fluor® 568 conjugate goat-anti-mouse and Alexa Fluor® 488 conjugate goat-anti-rabbit (1:500, Thermo Fisher Scientific, Waltham, MA, USA). Nuclei were stained using DAPI (Sigma–Aldrich, Mila, Italy) for 10 min at a concentration of 0.2 μg/mL then washed 3 times with PBS. Fluorescence was detected using a fluorescence microscope (Leica DM 6000). LAS-X software was used to acquire and process all images.
Figure 6 Immunofluorescence studies. HeLa cells were treated with AuL4, Vinblastine, Paclitaxel (used at their IC50 values) or with a vehicle (CTRL) for 24 h. After treatment, the cells were methanol fixed, incubated with primary and secondary antibodies, stained with DAPI and observed and imaged under the inverted fluorescence microscope at 20× magnification (see Materials and methods). […] Panels A: DAPI, excitation/emission wavelength 350 nm/460 nm; panels B: β-tubulin (Alexa Fluor® 488) excitation/emission wavelength 490 nm/515 nm; panels C show a merge. Representative fields are shown.

tubulin = assay: In vitro tubulin-polymerization assay (turbidity at 350 nm); format: biochemical; settings: 10 µM
Procedure: Tubulin-polymerization inihibition was measured using in vitro Tubulin-Polymerization Assay Kit purchased fromEMD Millipore Corporation. Polymerization reactions occur in 70 µL final volumes, of which 60 µL is the 60 µM tubulin in 1 × PB-GTP and 10 µL is the test substance dissolved in 1 × PB-GTP. […] These reactives were combined in 96-well plate on ice. After the plate was transferred into the spectrophotometer pre-warmed at 37 °C and the turbidity variation was measured every 30 s at 350 nm for 90 min. The plate was shaked for 10 s before each measurement. Turbidity (absorbance) readings were used to calculate the extent of polymerization [% inhibition = (1−A350 sample/A350 control) × 100].
Figure 4 Tubulin-polymerization assay. […] Two positive control molecules, Paclitaxel and Vinblastine, were used as tubulin-stabilizing and tubulin-destabilizing agents, respectively. DMSO was used as a negative control. Assembly of tubulin into microtubules was determined by measuring the turbidity at 350 nm for 3600 s at 37 °C. All the compounds were used at a concentration of 10 μM.

[2] = target: T2, human topoisomerase II (hTopo II) (Homo sapiens, UniProt P11388); assay: Human topoisomerase II decatenation assay; format: biochemical; settings: 1 μM
T2 construct: purchased topoGEN, Port Orange, FL, USA
Procedure: Decatenated and linear kDNA (Figure 8, lanes 1 and 2) are used as markers.
hTopo II decatenation assays were performed in a final volume of […], as reported by Iacopetta et al., using […] of kinetoplast DNA (kDNA) (topoGEN, Port Orange, FL, USA), tested compounds and 3 units of hTopo II (topoGEN, Port Orange, FL, USA). The reaction products were loaded in an agarose gel with EB. At the end, the gel was washed with distilled water and analyzed using a UV transilluminator. The experiment was repeated three times.
Lane 1 and 2, decatenated and linear kDNA, respectively.

T2 sequence (P11388 whole entry): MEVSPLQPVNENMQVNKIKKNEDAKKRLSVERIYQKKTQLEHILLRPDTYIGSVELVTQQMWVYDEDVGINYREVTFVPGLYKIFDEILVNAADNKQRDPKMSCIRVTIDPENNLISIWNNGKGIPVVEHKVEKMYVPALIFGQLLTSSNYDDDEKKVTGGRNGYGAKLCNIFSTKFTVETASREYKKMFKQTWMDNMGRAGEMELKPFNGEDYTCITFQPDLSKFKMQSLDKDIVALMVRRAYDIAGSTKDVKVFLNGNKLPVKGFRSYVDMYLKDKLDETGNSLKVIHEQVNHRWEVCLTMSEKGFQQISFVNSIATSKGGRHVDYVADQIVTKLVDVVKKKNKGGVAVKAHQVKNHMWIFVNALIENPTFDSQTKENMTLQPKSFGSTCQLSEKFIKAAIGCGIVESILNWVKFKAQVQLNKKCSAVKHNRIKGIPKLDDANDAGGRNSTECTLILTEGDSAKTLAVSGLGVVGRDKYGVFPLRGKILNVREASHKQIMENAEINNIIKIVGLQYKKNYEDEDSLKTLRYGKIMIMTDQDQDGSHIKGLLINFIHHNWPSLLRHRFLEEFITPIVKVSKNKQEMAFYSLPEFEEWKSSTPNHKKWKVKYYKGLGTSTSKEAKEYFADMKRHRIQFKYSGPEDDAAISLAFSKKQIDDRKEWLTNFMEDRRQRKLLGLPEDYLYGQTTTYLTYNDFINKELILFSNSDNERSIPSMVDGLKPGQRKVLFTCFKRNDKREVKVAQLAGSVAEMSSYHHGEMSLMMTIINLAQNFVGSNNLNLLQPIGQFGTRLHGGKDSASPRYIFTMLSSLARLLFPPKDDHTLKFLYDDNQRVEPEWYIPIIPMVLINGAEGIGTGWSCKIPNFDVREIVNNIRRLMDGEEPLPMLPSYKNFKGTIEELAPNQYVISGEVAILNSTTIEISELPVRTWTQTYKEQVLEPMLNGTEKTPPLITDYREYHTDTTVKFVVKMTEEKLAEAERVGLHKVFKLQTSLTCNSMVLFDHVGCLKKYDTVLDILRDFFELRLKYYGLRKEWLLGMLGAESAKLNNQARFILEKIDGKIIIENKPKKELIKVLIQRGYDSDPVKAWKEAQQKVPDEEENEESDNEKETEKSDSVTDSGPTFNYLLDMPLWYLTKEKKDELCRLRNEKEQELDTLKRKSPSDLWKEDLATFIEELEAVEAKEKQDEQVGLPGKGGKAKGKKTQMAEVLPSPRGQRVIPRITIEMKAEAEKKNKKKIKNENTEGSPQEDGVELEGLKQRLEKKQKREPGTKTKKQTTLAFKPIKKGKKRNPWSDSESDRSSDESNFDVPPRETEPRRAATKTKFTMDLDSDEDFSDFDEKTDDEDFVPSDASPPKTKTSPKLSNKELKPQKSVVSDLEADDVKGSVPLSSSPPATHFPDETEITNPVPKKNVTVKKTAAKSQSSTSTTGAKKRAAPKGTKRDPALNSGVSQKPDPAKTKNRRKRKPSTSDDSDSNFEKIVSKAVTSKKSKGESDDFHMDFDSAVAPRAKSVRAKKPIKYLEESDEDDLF

For `C[n+]1c(Cl)c(Cl)n(C2CCCC2O)[c]1[Au-][c]1n(C2CCCC2O)c(Cl)c(Cl)[n+]1C.[Cl][Au-][Cl]` (racemic) [AuL4, bis-[4,5-dichloro-(N-methyl-N’(cyclopentane-2ol)-imidazole-2-ylidine)gold(I)]^+[dichloro-gold]^−], the “inhibition of hTopo I supercoil relaxing activity” value [1] was “totally inhibition”, the “effect on microtubule network, HeLa” value (HeLa cells) was “paclitaxel-like behavior” and the “effect on tubulin-polymerization reaction” value (tubulin) was “seems not to hamper the tubulin-polymerization reaction”. The “final optical density value at 350 nm (OD350)” value (tubulin; 37 °C, vehicle (DMSO) about 0.43) was “slightly higher than that of DMSO reaction” and the “inhibition of hTopo II decatenation activity” value [2] was “total blockade of hTopoII activity”.
